Results taken from article PMC6072243 (ACS Omega, 2018).

Experiments:
[1] = target: JNK3 (Homo sapiens, UniProt P53779); assay: JNK3 enzyme-linked immunosorbent assay; type: biochemical
[2] = target: p38α MAPK (Homo sapiens, UniProt Q16539); assay: p38α MAPK enzyme-linked immunosorbent assay; type: biochemical; conditions: for inhibition at 10 µM: read-out: Percent inhibition of p38α MAPK at indicated concentration
[3] = target: JNK1 (Homo sapiens, UniProt P45983); assay: Radiometric assay, Reaction Biology corporation; type: biochemical
[4] = target: JNK2 (Homo sapiens, UniProt P45984); assay: Radiometric assay, Reaction Biology corporation; type: biochemical
[5] = target: hERG channels (Homo sapiens, UniProt Q12809); assay: hERG inhibition
[6] = test system: CYP450 1A9; assay: CYP450 inhibition; type: in vitro ADME; conditions: % inhibition at 10 μM
[7] = target: CYP450 2C9 (Homo sapiens, UniProt P11712); assay: CYP450 inhibition; type: in vitro ADME; conditions: % inhibition at 10 μM
[8] = target: CYP450 2C19 (Homo sapiens, UniProt P33261); assay: CYP450 inhibition; type: in vitro ADME; conditions: % inhibition at 10 μM
[9] = target: CYP450 2D6 (Homo sapiens, UniProt P10635); assay: CYP450 inhibition; type: in vitro ADME; conditions: % inhibition at 10 μM
[10] = target: CYP450 3A4 (Homo sapiens, UniProt P08684); assay: CYP450 inhibition; type: in vitro ADME; conditions: % inhibition at 10 μM
[11] = In vitro metabolic stability in human liver microsomes; type: in vitro ADME; conditions: after 4 h incubation
[12] = test system: panel of 45 diverse kinases; assay: ExpresS Diversity Kinase Panel, whole panel; type: biochemical, human; conditions: panel of 45 kinases, 10 μM, including JNK1
[13] = 2-methylaminothiazole versus 2-sulfanylimidazole (compound 5)

Sequence of JNK3 (P53779 whole entry): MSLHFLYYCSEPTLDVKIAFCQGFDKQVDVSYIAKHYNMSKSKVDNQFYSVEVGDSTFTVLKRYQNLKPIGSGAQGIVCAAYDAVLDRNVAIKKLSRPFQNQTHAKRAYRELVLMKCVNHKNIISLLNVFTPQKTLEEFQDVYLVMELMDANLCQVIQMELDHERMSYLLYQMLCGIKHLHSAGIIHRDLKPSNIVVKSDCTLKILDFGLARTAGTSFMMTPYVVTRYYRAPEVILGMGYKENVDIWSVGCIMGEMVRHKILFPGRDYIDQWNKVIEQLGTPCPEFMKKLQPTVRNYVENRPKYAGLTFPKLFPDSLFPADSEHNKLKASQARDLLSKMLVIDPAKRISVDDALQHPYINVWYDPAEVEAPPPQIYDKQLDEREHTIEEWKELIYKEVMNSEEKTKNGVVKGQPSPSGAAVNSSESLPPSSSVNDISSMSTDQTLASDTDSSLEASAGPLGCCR
Sequence of p38α MAPK (Q16539 whole entry): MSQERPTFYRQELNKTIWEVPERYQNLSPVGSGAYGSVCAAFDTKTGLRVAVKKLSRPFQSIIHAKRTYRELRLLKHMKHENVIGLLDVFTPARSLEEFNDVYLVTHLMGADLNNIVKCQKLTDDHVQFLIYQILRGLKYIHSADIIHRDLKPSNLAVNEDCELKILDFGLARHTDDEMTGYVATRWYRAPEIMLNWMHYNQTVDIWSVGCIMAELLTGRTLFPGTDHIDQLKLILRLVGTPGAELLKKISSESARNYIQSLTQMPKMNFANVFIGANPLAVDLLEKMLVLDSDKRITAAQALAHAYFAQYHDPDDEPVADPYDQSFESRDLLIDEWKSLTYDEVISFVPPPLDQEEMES
Sequence of hERG channels (Q12809 whole entry): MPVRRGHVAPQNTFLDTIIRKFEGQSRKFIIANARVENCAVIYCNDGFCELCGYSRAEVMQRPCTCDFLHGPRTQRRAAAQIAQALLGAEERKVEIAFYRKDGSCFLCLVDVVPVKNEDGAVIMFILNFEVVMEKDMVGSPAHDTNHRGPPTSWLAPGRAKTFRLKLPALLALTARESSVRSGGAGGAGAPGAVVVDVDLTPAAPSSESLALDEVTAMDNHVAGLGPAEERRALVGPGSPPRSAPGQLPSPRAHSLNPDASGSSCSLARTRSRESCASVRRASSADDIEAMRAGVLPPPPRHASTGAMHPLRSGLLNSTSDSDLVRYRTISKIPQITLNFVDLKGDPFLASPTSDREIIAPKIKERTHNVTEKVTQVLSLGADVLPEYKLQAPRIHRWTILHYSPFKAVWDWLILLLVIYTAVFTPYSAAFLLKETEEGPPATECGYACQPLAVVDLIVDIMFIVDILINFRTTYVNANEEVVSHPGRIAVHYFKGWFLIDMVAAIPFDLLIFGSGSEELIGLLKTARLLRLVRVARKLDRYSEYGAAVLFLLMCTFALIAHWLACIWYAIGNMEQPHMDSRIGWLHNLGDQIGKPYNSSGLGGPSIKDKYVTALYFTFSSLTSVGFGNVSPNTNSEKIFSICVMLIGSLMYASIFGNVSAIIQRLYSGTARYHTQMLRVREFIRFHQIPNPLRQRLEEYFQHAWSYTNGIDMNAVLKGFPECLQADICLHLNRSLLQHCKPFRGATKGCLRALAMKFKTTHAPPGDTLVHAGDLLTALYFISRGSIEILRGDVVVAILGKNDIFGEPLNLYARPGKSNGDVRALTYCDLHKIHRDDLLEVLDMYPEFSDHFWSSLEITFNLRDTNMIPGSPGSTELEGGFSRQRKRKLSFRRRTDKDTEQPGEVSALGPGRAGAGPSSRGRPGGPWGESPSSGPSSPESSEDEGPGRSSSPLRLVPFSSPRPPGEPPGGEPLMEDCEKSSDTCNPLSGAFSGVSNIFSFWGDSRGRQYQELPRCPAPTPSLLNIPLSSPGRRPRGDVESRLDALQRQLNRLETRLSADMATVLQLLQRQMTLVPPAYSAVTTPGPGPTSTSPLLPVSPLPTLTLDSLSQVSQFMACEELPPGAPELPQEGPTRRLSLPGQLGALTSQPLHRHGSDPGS
Sequence of CYP450 2C19 (P33261 whole entry): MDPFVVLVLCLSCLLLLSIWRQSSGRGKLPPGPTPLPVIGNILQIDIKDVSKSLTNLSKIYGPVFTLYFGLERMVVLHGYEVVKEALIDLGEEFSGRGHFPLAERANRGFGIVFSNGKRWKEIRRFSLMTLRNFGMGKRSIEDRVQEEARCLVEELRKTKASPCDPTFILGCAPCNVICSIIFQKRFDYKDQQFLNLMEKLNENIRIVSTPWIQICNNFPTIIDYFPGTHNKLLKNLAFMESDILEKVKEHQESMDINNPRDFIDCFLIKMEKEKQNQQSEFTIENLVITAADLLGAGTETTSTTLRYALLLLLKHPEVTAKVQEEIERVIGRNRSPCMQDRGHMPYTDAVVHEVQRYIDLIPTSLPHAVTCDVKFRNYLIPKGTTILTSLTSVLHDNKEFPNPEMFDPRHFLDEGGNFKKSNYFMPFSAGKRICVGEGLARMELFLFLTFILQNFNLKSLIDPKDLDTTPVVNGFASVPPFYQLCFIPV
Sequence of CYP450 2C9 (P11712 whole entry): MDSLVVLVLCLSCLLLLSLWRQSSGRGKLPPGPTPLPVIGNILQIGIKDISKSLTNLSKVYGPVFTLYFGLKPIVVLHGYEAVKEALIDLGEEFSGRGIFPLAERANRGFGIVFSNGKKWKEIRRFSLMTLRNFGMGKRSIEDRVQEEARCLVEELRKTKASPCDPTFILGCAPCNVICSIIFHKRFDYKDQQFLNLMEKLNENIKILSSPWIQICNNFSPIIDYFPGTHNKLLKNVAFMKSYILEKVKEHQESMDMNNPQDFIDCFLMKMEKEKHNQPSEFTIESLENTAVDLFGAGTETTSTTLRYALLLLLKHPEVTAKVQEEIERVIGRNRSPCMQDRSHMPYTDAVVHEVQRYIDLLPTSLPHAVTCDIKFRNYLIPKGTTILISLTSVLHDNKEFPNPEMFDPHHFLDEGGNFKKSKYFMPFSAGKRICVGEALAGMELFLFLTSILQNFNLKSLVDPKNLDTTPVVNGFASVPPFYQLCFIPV
Sequence of CYP450 3A4 (P08684 whole entry): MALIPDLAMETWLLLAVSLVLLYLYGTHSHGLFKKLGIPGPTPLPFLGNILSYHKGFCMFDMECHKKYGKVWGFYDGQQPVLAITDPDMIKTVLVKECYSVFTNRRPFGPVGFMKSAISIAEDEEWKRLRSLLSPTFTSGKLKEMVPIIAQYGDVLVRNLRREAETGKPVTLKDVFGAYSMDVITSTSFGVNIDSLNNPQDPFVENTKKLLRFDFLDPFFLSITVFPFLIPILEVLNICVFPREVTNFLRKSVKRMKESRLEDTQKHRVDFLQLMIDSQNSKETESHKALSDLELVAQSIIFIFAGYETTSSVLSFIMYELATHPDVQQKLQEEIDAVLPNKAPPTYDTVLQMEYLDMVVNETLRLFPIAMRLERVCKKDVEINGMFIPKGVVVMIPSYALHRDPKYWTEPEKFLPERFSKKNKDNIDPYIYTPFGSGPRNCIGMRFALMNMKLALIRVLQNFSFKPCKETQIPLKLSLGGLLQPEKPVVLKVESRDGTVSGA
Sequence of JNK1 (P45983 whole entry): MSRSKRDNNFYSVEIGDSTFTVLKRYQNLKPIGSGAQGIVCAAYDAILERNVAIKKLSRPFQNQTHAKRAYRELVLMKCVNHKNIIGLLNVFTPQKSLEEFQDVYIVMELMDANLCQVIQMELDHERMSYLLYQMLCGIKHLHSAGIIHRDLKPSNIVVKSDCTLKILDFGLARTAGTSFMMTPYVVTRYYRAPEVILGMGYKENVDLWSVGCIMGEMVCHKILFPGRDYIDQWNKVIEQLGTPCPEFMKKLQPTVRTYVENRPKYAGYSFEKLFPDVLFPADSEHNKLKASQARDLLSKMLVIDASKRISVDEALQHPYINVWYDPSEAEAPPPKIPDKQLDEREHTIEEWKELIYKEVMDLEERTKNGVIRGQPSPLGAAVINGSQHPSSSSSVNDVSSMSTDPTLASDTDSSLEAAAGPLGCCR
Sequence of JNK2 (P45984 whole entry): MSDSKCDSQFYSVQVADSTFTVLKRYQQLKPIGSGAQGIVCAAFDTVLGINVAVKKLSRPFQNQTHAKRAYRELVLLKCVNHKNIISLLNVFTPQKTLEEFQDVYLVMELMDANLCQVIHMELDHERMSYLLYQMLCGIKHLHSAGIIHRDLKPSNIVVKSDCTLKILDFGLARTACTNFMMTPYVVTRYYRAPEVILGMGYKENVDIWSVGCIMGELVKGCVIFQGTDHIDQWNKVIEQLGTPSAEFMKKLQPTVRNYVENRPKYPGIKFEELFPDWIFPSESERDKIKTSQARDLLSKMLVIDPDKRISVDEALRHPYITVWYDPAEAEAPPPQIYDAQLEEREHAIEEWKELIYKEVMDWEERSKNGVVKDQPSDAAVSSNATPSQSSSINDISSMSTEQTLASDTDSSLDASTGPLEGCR
Sequence of CYP450 2D6 (P10635 whole entry): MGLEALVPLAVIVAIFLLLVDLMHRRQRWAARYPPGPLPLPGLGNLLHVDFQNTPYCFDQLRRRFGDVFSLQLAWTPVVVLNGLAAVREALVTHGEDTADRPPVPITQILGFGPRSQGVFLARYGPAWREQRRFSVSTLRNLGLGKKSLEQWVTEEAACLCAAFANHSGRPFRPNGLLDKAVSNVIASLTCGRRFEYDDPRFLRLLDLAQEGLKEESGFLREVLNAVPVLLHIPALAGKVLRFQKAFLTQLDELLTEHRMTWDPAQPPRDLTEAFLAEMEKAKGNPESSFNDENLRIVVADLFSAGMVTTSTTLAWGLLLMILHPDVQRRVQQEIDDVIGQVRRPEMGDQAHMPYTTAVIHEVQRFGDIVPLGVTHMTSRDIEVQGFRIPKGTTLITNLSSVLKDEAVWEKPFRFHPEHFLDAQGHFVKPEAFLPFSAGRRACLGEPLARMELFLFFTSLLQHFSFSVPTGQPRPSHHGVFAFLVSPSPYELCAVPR

| SMILES | IC50 [1] | IC50 [2] | inhibition at 10 µM [2] | further results |
| --- | --- | --- | --- | --- |
| CSc1nc(C)c(-c2ccnc(Nc3ccc(N4CCOCC4)cc3)c2)[nH]1 [Compound 44, 4-(4-Methyl-2-(methylthio)-1H-imidazol-5-yl)-N-(4-morpholinophenyl)pyridin-2-amine] | 363 ± 34 nM | > 10000 nM | 48% | fold increase in the inhibitory potency on JNK3 over analogue 38 [1]: 2 fold; IC50 [3]: 119 nM; IC50 [4]: 468 nM; IC50 [5]: > 10000 nM; hERG inhibition [% inhibition at 10 μM] ([5]; 10 μM): 38.8%; CYP450 inhibition 1A9 [6]: 51.5%; CYP450 inhibition 2C9 [7]: 53.9%; CYP450 inhibition 2C19 [8]: 35.6%; CYP450 inhibition 2D6 [9]: 19.0%; CYP450 inhibition 3A4 [10]: 75.1%; unmodified compound still present [11]: approximately 80%; number of kinases inhibited more than 50% [12]: 10 |
| CSc1nc(C)c(-c2ccnc(Nc3ccc(NC(=O)c4ccccc4)cc3)c2)[nH]1 [Compound 48o, N-(4-((4-(4-Methyl-2-(methylthio)-1H-imidazol-5-yl)pyridin-2-yl)amino)phenyl)benzamide] | 432 ± 37 nM | > 10000 nM | 33% | – |
| CSc1nc(C)c(-c2ccnc(Nc3ccc(NC(=O)C4CCCCC4)cc3)c2)[nH]1 [Compound 48p, N-(4-((4-(4-Methyl-2-(methylthio)-1H-imidazol-5-yl)pyridin-2-yl)amino)phenyl)cyclohexanecarboxamide] | 1540 nM | > 10000 nM | 27% | – |
| CSc1nc(C)c(-c2ccnc(Nc3ccc(NC(=O)C(C)(C)C)cc3)c2)[nH]1 [Compound 48q, N-(4-((4-(4-Methyl-2-(methylthio)-1H-imidazol-5-yl)pyridin-2-yl)amino)phenyl)pivalamide] | 2370 nM | > 10000 nM | 15% | – |
| CSc1nc(-c2ccnc(Nc3ccc(N4CCOCC4)cc3)c2)c(C)n1C [Compound 50, 4-(1,5-Dimethyl-2-(methylthio)-1H-imidazol-4-yl)-N-(4-morpholinophenyl)pyridin-2-amine] | 1280 nM | > 10000 nM | 37% | – |
| CSc1nc(C)c(-c2ccnc(Nc3ccc(N4CCOCC4)cc3)c2)n1C [Compound 57, 4-(1,4-Dimethyl-2-(methylthio)-1H-imidazol-5-yl)-N-(4-morpholinophenyl)pyridin-2-amine] | 2510 nM | > 10000 nM | 10% | – |
| CCn1c(SC)nc(C)c1-c1ccnc(Nc2ccc(N3CCOCC3)cc2)c1 [Compound 58, 4-(1-Ethyl-4-methyl-2-(methylthio)-1H-imidazol-5-yl)-N-(4-morpholinophenyl)pyridin-2-amine] | 2090 nM | > 10000 nM | 21% | – |
| CSc1nc(C)c(-c2ccnc(Nc3ccc(N4CCOCC4)cc3)c2)n1C1CC1 [Compound 59, 4-(1-Cyclopropyl-4-methyl-2-(methylthio)-1H-imidazol-5-yl)-N-(4-morpholinophenyl)pyridin-2-amine] | 6510 nM | > 10000 nM | 40% | fold less active on JNK3 compared to N-methyl analogue 57 [1]: ~3 fold |
| Fc1ccc(-n2cncc2-c2ccnc(Nc3ccc(N4CCOCC4)cc3)c2)cc1 [Compound 66, 4-(1-(4-Fluorophenyl)-1H-imidazol-5-yl)-N-(4-morpholinophenyl)pyridin-2-amine] | 276 ± 10 nM | 323 ± 14 nM | – | – |
| Cn1cncc1-c1ccnc(Nc2ccc(N3CCOCC3)cc2)c1 [Compound 67, 4-(1-Methyl-1H-imidazol-5-yl)-N-(4-morpholinophenyl)pyridin-2-amine] | 714 ± 21 nM | > 10000 nM | 32% | – |
| Cn1ccnc1-c1ccnc(Nc2ccc(N3CCOCC3)cc2)c1 [Compound 71, 4-(1-Methyl-1H-imidazol-2-yl)-N-(4-morpholinophenyl)pyridin-2-amine] | > 10000 nM | > 10000 nM | 15% | inhibition at 10 µM ([1]; read-out: Percent inhibition of JNK3 at indicated concentration): 42% |
| CNc1nc(-c2ccc(F)cc2)c(-c2ccnc(Nc3ccc(N4CCOCC4)cc3)c2)s1 [Compound 75, 4-(4-Fluorophenyl)-N-methyl-5-(2-((4-morpholinophenyl)amino)pyridin-4-yl)thiazol-2-amine] | 15 ± 3 nM | 2 nM | – | fold increase in inhibitory activity for JNK3 [1, 13]: 2.5 fold; fold increase in inhibitory activity for p38α MAPK [2, 13]: 8 fold |
| CNc1nc(-c2ccnc(Nc3ccc(N4CCOCC4)cc3)c2)c(C)s1 [Compound 78, N,5-Dimethyl-4-(2-((4-morpholinophenyl)amino)pyridin-4-yl)thiazol-2-amine] | 2500 nM | > 10000 nM | 9% | – |
